From patent US20040072825A1, “2-(2-(4-((2r)-2-methyl-3-(10h-phenothiazin-10-yl)propyl)-1-piperazinyl)-ethoxy) ethanol, process for the preparation thereof, pharmaceutical compositions containing said compound and therapeutic uses thereof” (priority 2000, published 2004)
Marks after values point to notes of the source that are not given here.

Experiments:
[1] = molecular target: T1, human D3 dopaminergic receptor (Homo sapiens, UniProt P35462); assay: Radioligand binding, human D3 receptor (CHO cell culture); conditions: for IC50: D3, competitive binding, read-out: Affinity pIC50 (-log IC50) (converted)
T1 construct: expressed in transfected cells; host or cells: CHO
T1 sequence (P35462 whole entry): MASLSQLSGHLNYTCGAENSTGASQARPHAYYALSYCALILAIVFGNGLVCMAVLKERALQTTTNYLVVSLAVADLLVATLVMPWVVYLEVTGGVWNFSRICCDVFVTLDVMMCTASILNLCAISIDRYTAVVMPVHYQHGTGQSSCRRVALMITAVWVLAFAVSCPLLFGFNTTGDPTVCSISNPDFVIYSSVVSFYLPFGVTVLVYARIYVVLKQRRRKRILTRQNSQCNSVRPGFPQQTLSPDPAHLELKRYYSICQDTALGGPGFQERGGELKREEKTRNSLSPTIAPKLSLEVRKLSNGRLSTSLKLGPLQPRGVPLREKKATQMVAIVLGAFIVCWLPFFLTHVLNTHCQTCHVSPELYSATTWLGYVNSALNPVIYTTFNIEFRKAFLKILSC
Description: (§1) The test substances, biological materials and experimental protocols used in the study are described in Moguilevsky N. et al. (1994) Eur. J. […] List S. J. (1981) Proc. Natl. Acad. Sci.78:2620-2624; MacKenzie R. G. et al. (1994) Eur. J. Pharmacol. 266:79-85; Van Tol et al., (1992) Nature, 358:149-152. […] Filtermat A, Walac), then washed with cold buffer using a filtration unit ‘Cell Harvester’ (Brandel, Packard or Tomtec). The bound radioactivity is measured using a scintillation liquid (Formula 989 or Microscint 0, Packard) or solid (Meltilex B/HS, Wallac), and a scintillation counter (LS 6000, Beckman; Topcount, Packard; Betaplate, Wallac). […] Each experiment was performed in duplicate (n=2). In parallel, a positive control (concentration of reference substance causing 50% inhibition of radioligand specific binding) is tested to validate the assay. For competition experiments, membranes are incubated in the buffer containing the radioligand and increasing concentrations of unlabeled test substances. Each binding assay is validated with a reference compound tested in parallel. […] where BO and BI represent the total binding in the absence and presence of the unlabelled drug (in dpm/assay) and NSB is the amount of non specific binding (in dpm/assay). Analysis of raw data and pIC50 calculation is performed by computerized non-linear curve fitting methods using a set of equations describing competitive interactions between labelled and unlabeled ligands which obey the law of mass action. IC50 represents the concentration of the test substance inhibiting 50% of the specific binding of the radioligand. It is determined in competitive binding experiments by measuring the binding of a single concentration of a radioactive ligand at equilibrium with various concentrations of the unlabeled test substance. pIC50=−log IC50

[2] = molecular target: T2, 5-HT2 serotonergic receptor (Rattus norvegicus, UniProt P14842); assay: Radioligand binding, 5-HT2 receptor (rat cerebral cortex); conditions: for IC50: 5-HT2, competitive binding, read-out: Affinity pIC50 (-log IC50) (converted)
T2 construct: the rat cerebral cortex (5-HT2 receptor); from tissue; host or cells: rat cerebral cortex
T2 sequence (P14842 whole entry): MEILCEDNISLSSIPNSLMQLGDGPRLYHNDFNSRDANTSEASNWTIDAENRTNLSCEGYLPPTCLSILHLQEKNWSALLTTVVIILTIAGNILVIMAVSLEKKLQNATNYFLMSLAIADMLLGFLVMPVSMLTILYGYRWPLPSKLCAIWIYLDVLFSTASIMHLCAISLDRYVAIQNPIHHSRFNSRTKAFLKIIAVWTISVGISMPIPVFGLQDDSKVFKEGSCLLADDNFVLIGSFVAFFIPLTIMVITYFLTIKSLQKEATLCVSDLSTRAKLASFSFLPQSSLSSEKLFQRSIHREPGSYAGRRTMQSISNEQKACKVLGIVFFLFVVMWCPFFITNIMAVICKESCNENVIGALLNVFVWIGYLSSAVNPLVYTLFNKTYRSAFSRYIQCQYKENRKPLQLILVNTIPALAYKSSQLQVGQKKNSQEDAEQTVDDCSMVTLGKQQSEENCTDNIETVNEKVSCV
Description: as §1

[3] = molecular target: T3, D4.4 dopaminergic receptor (Homo sapiens, UniProt P21917); assay: Radioligand binding, D4.4 receptor (CHO cell culture); conditions: for IC50: D4.4, competitive binding, read-out: Affinity pIC50 (-log IC50) (converted)
T3 construct: expressed in transfected cells; host or cells: CHO
T3 sequence (P21917 1-419): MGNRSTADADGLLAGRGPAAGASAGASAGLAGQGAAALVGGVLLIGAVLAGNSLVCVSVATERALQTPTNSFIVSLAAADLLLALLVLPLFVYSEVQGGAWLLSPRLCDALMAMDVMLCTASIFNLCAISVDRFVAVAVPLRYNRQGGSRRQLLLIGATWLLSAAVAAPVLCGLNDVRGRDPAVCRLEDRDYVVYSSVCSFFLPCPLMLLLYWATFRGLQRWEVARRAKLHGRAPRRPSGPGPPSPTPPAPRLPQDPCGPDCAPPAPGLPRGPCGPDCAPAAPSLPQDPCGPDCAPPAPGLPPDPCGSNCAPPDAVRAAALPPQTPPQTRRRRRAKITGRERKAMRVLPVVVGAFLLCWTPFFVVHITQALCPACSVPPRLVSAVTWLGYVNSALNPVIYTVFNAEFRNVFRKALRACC
Description: as §1

[4] = molecular target: human H1 histaminic receptor (Homo sapiens, UniProt P35367); assay: Radioligand binding, human H1 receptor (CHO cell culture); conditions: for IC50: H1, competitive binding, read-out: Affinity pIC50 (-log IC50) (converted)
Chain of human H1 histaminic receptor (P35367 whole entry): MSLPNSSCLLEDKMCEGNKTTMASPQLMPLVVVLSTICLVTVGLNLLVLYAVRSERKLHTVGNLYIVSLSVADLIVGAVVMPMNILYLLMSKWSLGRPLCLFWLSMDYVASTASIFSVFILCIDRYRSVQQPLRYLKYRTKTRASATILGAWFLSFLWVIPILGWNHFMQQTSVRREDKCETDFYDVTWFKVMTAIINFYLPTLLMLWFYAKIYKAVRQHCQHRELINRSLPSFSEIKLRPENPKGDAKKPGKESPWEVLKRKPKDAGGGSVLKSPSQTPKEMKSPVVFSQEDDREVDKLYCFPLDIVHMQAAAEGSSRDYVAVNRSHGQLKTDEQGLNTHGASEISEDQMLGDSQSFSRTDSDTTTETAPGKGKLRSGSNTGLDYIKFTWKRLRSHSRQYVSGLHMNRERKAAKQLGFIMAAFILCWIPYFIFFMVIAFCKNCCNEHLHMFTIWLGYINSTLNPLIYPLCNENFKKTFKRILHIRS
Description: as §1

D2 dopaminergic receptor = D2 dopaminergic receptor (Rattus norvegicus, UniProt P61169); assay: Radioligand binding, D2 receptor (rat striatum membranes); conditions: for IC50: D2, competitive binding, read-out: Affinity pIC50 (-log IC50) (converted)
Chain of D2 dopaminergic receptor (P61169 1-415 isoform P61169-2): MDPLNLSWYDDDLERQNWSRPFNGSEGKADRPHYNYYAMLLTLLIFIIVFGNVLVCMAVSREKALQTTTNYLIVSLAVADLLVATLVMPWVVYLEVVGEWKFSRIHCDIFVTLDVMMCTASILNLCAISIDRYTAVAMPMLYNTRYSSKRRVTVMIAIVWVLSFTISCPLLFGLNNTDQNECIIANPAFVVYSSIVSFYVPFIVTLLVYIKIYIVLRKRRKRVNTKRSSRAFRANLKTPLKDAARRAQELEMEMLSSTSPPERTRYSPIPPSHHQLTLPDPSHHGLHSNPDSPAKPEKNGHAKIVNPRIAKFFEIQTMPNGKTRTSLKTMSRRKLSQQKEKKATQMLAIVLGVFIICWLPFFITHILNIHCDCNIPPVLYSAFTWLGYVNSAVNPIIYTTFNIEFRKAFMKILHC
Description: as §1

[5] = test system: vomiting induced by cisplatin in ferrets; assay: Cisplatin-induced emesis in ferrets, single oral administration; assay type: in vivo, ferret; conditions: for Proportion of animal vomiting: 60 min before cisplatin i.v., 5 h observation
Description: Cisplatin-induced emesis in ferrets is largely considered as the most suitable animal model for the study of drug activity against chemotherapy-induced vomiting in man (Georges L. King. Animal models in the study of vomiting. Can. J. Physiol. Pharmacol. 68, 260-268, 1988).
Three compounds, dixyrazine dihydrochloride and its (R) and (S) enantiomers were tested for their activity against vomiting induced by cisplatin in ferrets following single oral administration.
The study involved 14 groups of 8 male ferrets weighing between 0.93 kg and 1.45 kg purchased from the company MARSHALL FARMS (NEW YORK, U.S.). Groups were defined as follows: […]
group 1: control group dosed with the vehicle of test substances (sterile water),
group 2: method-control group dosed with a method-control substance, granisetron ([…], RBI®), at a dose of 0.3 mg/kg,
group 3 to 6: group dosed with diyyrazine dihydrochloride at 4 increasing doses of 7.5, 15, 30 and 60 mg/kg,
group 7 to 10: group dosed with the (R) enantiomer of dixyrazine dihydrochloride at 4 increasing doses of 7.5, 15, 30 and 60 mg/kg,
group 11 to 14: group dosed with the (S) enantiomer of drazine dihydrochloride at 4 increasing doses of 7.5, 15, 30 and 60 mg/kg.
On the day prior to the test, animals were fasted and allowed access only to water.
On the morning of the day of the study, free access to food was allowed for 30 minutes. Subsequently, animals were again put on to a water-only fast for 30 minutes before administration of the three compounds, the vehicle or the method-control substance which were administrated orally in a volume of 5 ml/kg.
Cisplatin was administrated by the intravenous route at a dose of 115 mg/m^2 and in a volume of 115 ml/m^2 (i.e. approximately at 10 mg/kg), 60 minutes after treatment. […] Emesis was characterised by abdominal contractions, which were associated with expulsion or attempted expulsion of stomach contents.
The time to onset of emesis was noted. The number of episodes of vomiting and the number of abdominal retches associated with episodes of emesis were also noted.

[6] = highest dose of 60 mg/kg p.o., dihydrochloride, 60 mg/kg
[7] = highest dose of 60 mg/kg p.o., listed as (R) enantiomer of dixyrazine dihydrochloride, dihydrochloride, 60 mg/kg

Structure (SMILES): C[C@@H](CN1CCN(CCOCCO)CC1)CN1c2ccccc2Sc2ccccc21 (single isomer, unassigned) [(S) enantiomer (free base)]
- percent inhibition of control specific binding ([1]; D3, 0.2 μM, mean of duplicate): — (Symbol-represents an inhibition<10%)
- percent inhibition of control specific binding ([1]; D3, 10 μM, mean of duplicate): 74%
- percent inhibition of control specific binding ([2]; 5-HT2, 10 μM, mean of duplicate): 101%
- percent inhibition of control specific binding ([3]; D4.4, 0.2 μM, mean of duplicate): — (Symbol-represents an inhibition<10%)
- percent inhibition of control specific binding ([3]; D4.4, 10 μM, mean of duplicate): 27%
- percent inhibition of control specific binding ([4]; H1, 10 μM, mean of duplicate): 101%
- percent inhibition of control specific binding (D2 dopaminergic receptor; D2, 10 μM, mean of duplicate): 89%

Structure (SMILES): C[C@H](CN1CCN(CCOCCO)CC1)CN1c2ccccc2Sc2ccccc21 [(R) enantiomer (free base), 2-(2-{4-[(2R)-2-methyl-3-(10H-phenothiazin-10-yl)propyl]-1-piperazinyl}ethoxy)ethanol]
- inhibition at 0.1 µM ([1]; D3, 0.1 μM, mean of duplicate, read-out: percent inhibition of control specific binding): 81%
- inhibition at 10 µM ([1]; D3, 10 μM, mean of duplicate, read-out: percent inhibition of control specific binding): 100%
- inhibition at 10 µM ([2]; read-out: percent inhibition of control specific binding, 5-HT2, 10 μM, mean of duplicate): 102%
- inhibition at 0.1 µM ([3]; D4.4, 0.1 μM, mean of duplicate, read-out: percent inhibition of control specific binding): 40%
- inhibition at 10 µM ([3]; D4.4, 10 μM, mean of duplicate, read-out: percent inhibition of control specific binding): 99%
- inhibition at 10 µM ([4]; H1, 10 μM, mean of duplicate, read-out: percent inhibition of control specific binding): 101%
- inhibition at 10 µM (D2 dopaminergic receptor; D2, 10 μM, mean of duplicate, read-out: percent inhibition of control specific binding): 100%

Structure (SMILES): C[C@H](CN1CCN(CCOCCO)CC1)CN1c2ccccc2Sc2ccccc21.Cl.Cl [(R) enantiomer dihydrochloride, 2-(2-{4-[(2R)-2-methyl-3-(10H-phenothiazin-10-yl)propyl]-1-piperazinyl}ethoxy)ethanol dihydrochloride]
- IC50 [1]: 50.1 nM
- Stereoselectivity ratio ([1]; D3, IC50 of (S) enantiomer/IC50 of (R) enantiomer): 63
- IC50 [2]: 3.98 nM
- Stereoselectivity ratio ([2]; 5-HT2, IC50 of (S) enantiomer/IC50 of (R) enantiomer): 16
- Time to onset of emesis ([5]; 7.5 mg/kg p.o.): 81 min
- Proportion of animal vomiting ([5]; 7.5 mg/kg p.o.): 5/8
- Time to onset of emesis ([5]; 15 mg/kg p.o.): 80 min
- Proportion of animal vomiting ([5]; 15 mg/kg p.o.): 8/8
- Time to onset of emesis ([5]; 30 mg/kg p.o.): 81 min
- Proportion of animal vomiting ([5]; 30 mg/kg p.o.): 5/8
- Time to onset of emesis ([5]; 60 mg/kg p.o.): 134 min
- suppression of vomiting, number of animals ([5]; 60 mg/kg p.o.): 4 animals out of 8
- Proportion of animal vomiting ([5]; 60 mg/kg p.o.): 4/8*
- antiemetic effect (in words) [5, 6]: induced an antiemetic effect
- effect on time to onset of emesis (in words) [5, 6]: a tendency to increase the time to onset of emesis
- antiemetic effect (in words) [5, 7]: significantly reduce cisplatin-induced emesis
- effect on time to onset of emesis (in words) [5, 7]: clear tendency to delay the latency to onset of the first vomiting episode
- IC50 [3]: 158 nM
- Stereoselectivity ratio ([3]; D4.4, IC50 of (S) enantiomer/IC50 of (R) enantiomer): 158
- IC50 [4]: 0.2 nM
- Stereoselectivity ratio ([4]; H1, IC50 of (S) enantiomer/IC50 of (R) enantiomer): 25
- IC50 (D2 dopaminergic receptor): 2.51 nM
- Stereoselectivity ratio (D2 dopaminergic receptor; D2, IC50 of (S) enantiomer/IC50 of (R) enantiomer): 316

Structure (SMILES): C[C@@H](CN1CCN(CCOCCO)CC1)CN1c2ccccc2Sc2ccccc21.Cl.Cl [(S) enantiomer dihydrochloride, 2-(2-{4-[(2S)-2-Methyl-3-(10H-phenothiazin-10-yl)propyl]-1-piperazinyl}ethoxy)ethanol dihydrochloride]
- IC50 [1]: 3160 nM
- IC50 [2]: 63.1 nM
- Time to onset of emesis ([5]; 7.5 mg/kg p.o.): 87 min
- Proportion of animal vomiting ([5]; 7.5 mg/kg p.o.): 8/8
- Time to onset of emesis ([5]; 15 mg/kg p.o.): 87 min
- Proportion of animal vomiting ([5]; 15 mg/kg p.o.): 8/8
- Time to onset of emesis ([5]; 30 mg/kg p.o.): 82 min
- Proportion of animal vomiting ([5]; 30 mg/kg p.o.): 7/8
- Time to onset of emesis ([5]; 60 mg/kg p.o.): 68* minutes
- Proportion of animal vomiting ([5]; 60 mg/kg p.o.): 7/8
- pro-emetic properties (in words) ([5]; cisplatin-treated ferrets): undesirable pro-emetic properties
- effect on time to onset of emesis (in words) ([5]; highest dose of 60 mg/kg p.o.): statistically significant decrease in the time of onset of emesis
- antiemetic effect (in words) ([5]; whatever the dose tested (7.5 to 60 mg/kg p.o.), dihydrochloride): no antiemetic effect
- antiemetic effect (in words) ([5]; whatever the dose tested (7.5 to 60 mg/kg p.o.), listed as (S) enantiomer of dixyrazine dihydrochloride, dihydrochloride): inactive in preventing cisplatin-induced emesis
- IC50 [3]: 25100 nM
- IC50 [4]: 5.01 nM
- IC50 (D2 dopaminergic receptor): 794 nM

Structure (SMILES): CN1C2CCCC1CC(NC(=O)c1nn(C)c3ccccc13)C2 (centres unmarked) [Granisetron, reference compound]
- Time to onset of emesis ([5]; 0.3 mg/kg p.o.): 160* minutes
- antiemetic effect (in words) ([5]; 0.3 mg/kg p.o.): significant antiemetic effect
- Proportion of animal vomiting ([5]; 0.3 mg/kg p.o.): 3/8*
- suppression of vomiting, number of animals ([5]; 0.3 mg/kg p.o., 1 hour before cisplatin i.v.): 5 animals out of 8
- effect on time to onset of emesis (in words) ([5]; 0.3 mg/kg p.o., the 3 animals that still vomited): increase in the time to onset of emesis
